“Also recorded” adds a separate entry of the source. Marks after values point to notes of the source that are not given here.
What was measured:
[1] = tested on: Streptococcus mutans Ingbritt; assay: Six species polymicrobial biofilm in constant-depth film fermenter, species composition: S. mutans; assay type: cell-based
Method: (§1) To model supragingival plaque six representative oral bacterial species, Streptococcus sanguinis (NCTC 7863), Streptococcus mutans Ingbritt, Actinomyces naeslundii (NCTC 10301), Veillonella parvula (ATCC 17745), Lactobacillus casei (NCDO 161) and Fusobacterium nucleatum (ATCC 10953) (Table 5) were cultured as a polymicrobial biofilm on a human enamel substratum in a constant-depth film fermenter (CDFF; Cardiff University, UK). The CDFF was housed in a 37° C. incubator under anaerobic conditions which were maintained by a constant flow of 5% CO2 in N2 at 1 L/h. The CDFF contained 15 removable polytetrafluoroethylene (PTFE) pans on a circular platform that was rotated at a constant speed of three rpm. The biofilms were grown on three enamel blocks (see below) in each PTFE pan using an artificial saliva medium (ASM, 2.5 g/L mucin type II (porcine, gastric, Sigma), 2.0 g/L bacteriological peptone (Oxoid), 2.0 g/L tryptone (Oxoid), 1.0 g/L yeast extract (Oxoid), 0.35 g/L NaCl, 0.2 g/L KCl, 0.2 mg/L vitamin K, 1 mg/L haemin and 0.1 g/L cysteine hydrochloride) at a constant flow rate of 30 mL/h. Prior to inoculation, the CDFF pan surfaces were conditioned for 24 h with ASM at a flow rate of 10 mL/h (McBain et al (2003) J Appl Microbiol. 94(4):655-66). In order to mimic in vivo bacterial growth conditions in the oral cavity with dietary sugar intake and to provide a high cariogenic challenge, a 1% (w/v) sucrose solution in ASM was pumped into the CDFF four times a day at four hourly intervals with a flow rate of 30 mL/h for 10 min.
Three treatments were applied to the polymicrobial biofilms: 290 ppm fluoride with 220 ppm fluoride as SnF2 and 70 ppm fluoride as NaF (referred to as SnF2), 2% CPP-ACP and 2% CPP-ACP-SnF2. […]
(§2) For each timepoint, DNA was extracted separately from 8-9 enamel blocks using PowerLyzer® PowerSoil® DNA Isolation Kits (MoBio Laboratories) following the manufacturers “Vacuum Protocol” with a Precellys® bead homogeniser (Bertin Technologies). Samples were quantified using a Qubit™ dsDNA HS assay kit (Life Technologies) before being stored at −80° C. […]

[2] = tested on: Lactobacillus casei (NCDO 161); assay: Six species polymicrobial biofilm in constant-depth film fermenter, species composition: L. casei; assay type: cell-based
Method: as §1
(§3) Three treatments were applied to the polymicrobial biofilms: 290 ppm fluoride with 220 ppm fluoride as SnF2 and 70 ppm fluoride as NaF (referred to as SnF2), 2% CPP-ACP and 2% CPP-ACP-SnF2. These treatments were compared with the control in which the test solution was replaced with ASM. Each treatment was applied using two 10 min pulses of the test solution in ASM with a flow rate of 30 mL/h. The first pulse started 30 min prior to the first sucrose pulse of the morning and the second started 3 h 30 min after the final sucrose pulse of the day.
(§4) On day 6, 12 and 19 after inoculation four pans were removed aseptically from the CDFF and replaced with blank sterile pans. Enamel blocks from the pans were removed for bacterial enumeration and transverse microradiography.
Planktonic and loosely attached bacterial cells were firstly removed from the enamel blocks by light washing with 100 μL ASM. […]
as §2

supragingival plaque = assay: Clinical trial: plaque index (Turesky modification of the Quigley-Hein Index); assay type: in vivo, human; details: CPP-ACP gum (18.8 or 56.4 mg), 14 days, vs no gum chewing; FIG. 1
Method: Following the completion of the examination and supragingival plaque collection, participants received a supragingival scaling, clean and prophylaxis of all their teeth. At the completion of the last examination for leg 3, each participant received a professional fluoride treatment. Supragingival plaque was assessed using the Turesky modification of the Quigley-Hein Index (Turesky et al 1970 J Periodontol 41(1):41-43). This index is recognised as a reliable estimate of the tooth area covered by plaque and is frequently used for evaluating anti-plaque agents. The plaque index was obtained by adding the scores for each tooth and dividing by the number of surfaces examined. Plaque scores associated with unrestored labial, buccal and lingual surfaces of all teeth, except third molars were assessed. Each surface was assigned a score from 0 to 5.

[3] = tested on: Fusobacterium nucleatum (ATCC 10953); assay: Six species polymicrobial biofilm in constant-depth film fermenter, species composition: F. nucleatum; assay type: cell-based
Method: as §1, §3, §4
Planktonic and loosely attached bacterial cells were firstly removed from the enamel blocks by light washing with 100 μL ASM. To harvest the biofilm cells on each block, the surface was scraped with a sterile scraper with 1 mL of ASM. The biofilm bacterial cells were sedimented by centrifugation (10,000 g, 10 min), the supernatant carefully decanted and the cell pellets stored at −80° C. until required for DNA extraction. The enamel blocks were then used for sectioning and microradiography.
For each timepoint, DNA was extracted separately from 8-9 enamel blocks using PowerLyzer® PowerSoil® DNA Isolation Kits (MoBio Laboratories) following the manufacturers “Vacuum Protocol” with a Precellys® bead homogeniser (Bertin Technologies). Samples were quantified using a Qubit™ dsDNA HS assay kit (Life Technologies) before being stored at −80° C.
The Ion Amplicon Library Preparation Fusion Method (Thermo Fisher Scientific), was adapted for amplification of the V4 region of the 16S rRNA gene. […]

[4] = 19 days, mean ± standard deviation, n = 5-21

Casein phosphopeptide-amorphous calcium phosphate [CPP-ACP]
S. mutans as a percentage of total bacteria in the biofilm [1, 4]: 58.70 ± 5.47^b %
change in abundance of S. mutans relative to the control (in words) ([1]; twice daily treatment, day 19): remained relatively constant
L. casei as a percentage of total bacteria in the biofilm [2, 4]: 0.38 ± 0.23^ac %
change in abundance of L. casei relative to the control (in words) ([2]; twice daily treatment, day 19): dramatically decreased; also recorded: suppressed the emergence
decrease in relative abundance of L. casei compared with the control ([2]; twice daily treatment, consistent): > 95%
plaque index (supragingival plaque): did not produce a significant change
F. nucleatum as a percentage of total bacteria in the biofilm [3, 4]: 2.43 ± 1.21^ace %
change in abundance of F. nucleatum after treatment relative to the control (increase) ([3]; day 19, FIG. 5B): 355%
change in abundance of F. nucleatum relative to the control (in words) ([3]; twice daily treatment, day 19): significantly increased; also recorded: reproducible increases

From US11717536B2, “Treatment for periodontitis” (THE UNIVERSITY OF MELBOURNE, priority 2017, dated 2023)
